Calls of active or inactive are those of the source. The calls are words filed in the database; no cut-off is given here.
Tests used:
[1] = system: Staphylococcus ureilyticus; experiment: Antibacterial activity against clinical isolate Staphylococcus ureilyticus 1972 measured after 24 hrs by broth microdilution method; format: functional
Staphylococcus aureus [2] = experiment: Antibacterial activity against Staphylococcus aureus ATCC 29213 measured after 24 hrs by broth microdilution method; format: functional
Bacillus subtilis = experiment: Antibacterial activity against Bacillus subtilis 168 measured after 24 hrs by broth microdilution method; format: functional
Micrococcus luteus [3] = experiment: Antibacterial activity against Micrococcus luteus clinical isolate measured after 24 hrs by broth microdilution method; format: functional
Escherichia coli [4] = experiment: Antibacterial activity against Escherichia coli MG 1655 measured after 24 hrs by broth microdilution method; format: functional
Pseudomonas aeruginosa [5] = experiment: Antibacterial activity against Pseudomonas aeruginosa ATCC 27853 measured after 24 hrs by broth microdilution method; format: functional
[6] = Cytotoxicity against human HEK293 cells assessed as cell viability measured after 72 hrs by MTT assay; format: cell-based
[7] = Cytotoxicity against human mesenchymal stem cells assessed as cell viability measured after 72 hrs by MTT assay; format: cell-based
[8] = Cytotoxicity against human skin fibroblasts assessed as cell viability measured after 72 hrs by MTT assay; format: cell-based, Fibroblast
[9] = Genotoxicity in Salmonella typhimurium TA1535/pSK1002 assessed as DNA-damage activity by measuring beta-galactosidase activity at 750 ug/ml measured by SOS-chromotest relative to solvent control; format: toxicity; conditions: salmonella enterica subsp. enterica serovar typhimurium; dose 750 µg/ml
[10] = Genotoxicity in Salmonella typhimurium TA1535/pSK1002 assessed as DNA-damage activity by measuring beta-galactosidase activity at 150 ug/ml measured by SOS-chromotest relative to solvent control; format: toxicity; conditions: salmonella enterica subsp. enterica serovar typhimurium; dose 150 µg/ml
[11] = Genotoxicity in Salmonella typhimurium TA1535/pSK1002 assessed as DNA-damage activity by measuring beta-galactosidase activity at 75 ug/ml measured by SOS-chromotest relative to solvent control; format: toxicity; conditions: salmonella enterica subsp. enterica serovar typhimurium; dose 75 µg/ml
[12] = Genotoxicity in Salmonella typhimurium TA1535/pSK1002 assessed as DNA-damage activity by measuring beta-galactosidase activity at 15 ug/ml measured by SOS-chromotest relative to solvent control; format: toxicity; conditions: salmonella enterica subsp. enterica serovar typhimurium; dose 15 µg/ml
[13] = Genotoxicity in Salmonella typhimurium TA1535/pSK1002 assessed as DNA-damage activity by measuring beta-galactosidase activity at 7.5 ug/ml measured by SOS-chromotest relative to solvent control; format: toxicity; conditions: salmonella enterica subsp. enterica serovar typhimurium; dose 7.5 µg/ml
[14] = Genotoxicity in Salmonella typhimurium TA1535 assessed as number of revertant by Ames spot test relative to solvent control; format: toxicity; conditions: salmonella enterica subsp. enterica serovar typhimurium
[15] = Genotoxicity in Salmonella typhimurium TA1537 assessed as number of revertant by Ames spot test relative to solvent control; format: toxicity; conditions: salmonella enterica subsp. enterica serovar typhimurium
[16] = Genotoxicity in Salmonella typhimurium TA98 assessed as number of revertant by Ames spot test relative to solvent control; format: toxicity; conditions: salmonella enterica subsp. enterica serovar typhimurium
[17] = Genotoxicity in Salmonella typhimurium TA100 assessed as number of revertant by Ames spot test relative to solvent control; format: toxicity; conditions: salmonella enterica subsp. enterica serovar typhimurium
Staphylococcus aureus [18] = experiment: Antibacterial activity against clinical isolate methicillin-resistant Staphylococcus aureus 713 measured after 24 hrs by broth microdilution method; format: functional
Staphylococcus aureus [19] = experiment: Antibacterial activity against clinical isolate methicillin-resistant Staphylococcus aureus 983 measured after 24 hrs by broth microdilution method; format: functional
Staphylococcus aureus [20] = experiment: Antibacterial activity against clinical isolate methicillin-resistant Staphylococcus aureus 1053 measured after 24 hrs by broth microdilution method; format: functional
[21] = system: Staphylococcus intermedius; experiment: Antibacterial activity against clinical isolate methicillin-resistant Staphylococcus intermedius 1061 measured after 24 hrs by broth microdilution method; format: functional
Staphylococcus aureus [22] = experiment: Antibacterial activity against clinical isolate methicillin-resistant Staphylococcus aureus 1065 measured after 24 hrs by broth microdilution method; format: functional
Staphylococcus aureus [23] = experiment: Antibacterial activity against clinical isolate methicillin-resistant Staphylococcus aureus 1131 measured after 24 hrs by broth microdilution method; format: functional
[24] = system: Staphylococcus intermedius; experiment: Antibacterial activity against clinical isolate methicillin-resistant Staphylococcus intermedius 1143 measured after 24 hrs by broth microdilution method; format: functional
Staphylococcus aureus [25] = experiment: Antibacterial activity against clinical isolate Staphylococcus aureus 25 measured after 24 hrs by broth microdilution method; format: functional
Enterococcus faecalis [26] = experiment: Antibacterial activity against clinical isolate Enterococcus faecalis 23 measured after 24 hrs by broth microdilution method; format: functional
Enterococcus faecalis [27] = experiment: Antibacterial activity against clinical isolate Enterococcus faecalis 3063 measured after 24 hrs by broth microdilution method; format: functional
Acinetobacter sp. = experiment: Antibacterial activity against clinical isolate Acinetobacter sp. 3 measured after 24 hrs by broth microdilution method; format: functional
Pseudomonas sp. = experiment: Antibacterial activity against clinical isolate Pseudomonas sp. 5 measured after 24 hrs by broth microdilution method; format: functional
Klebsiella sp. = experiment: Antibacterial activity against clinical isolate Klebsiella sp. 11 measured after 24 hrs by broth microdilution method; format: functional
Proteus sp. = experiment: Antibacterial activity against clinical isolate Proteus sp. 17 measured after 24 hrs by broth microdilution method; format: functional; conditions: Proteus sp. (in: enterobacteria)
Escherichia coli [28] = experiment: Antibacterial activity against clinical isolate Escherichia coli 718 measured after 24 hrs by broth microdilution method; format: functional
Moraxella = experiment: Antibacterial activity against clinical isolate Moraxella 765 measured after 24 hrs by broth microdilution method; format: functional
Klebsiella pneumoniae = experiment: Antibacterial activity against clinical isolate Klebsiella pneumoniae 1813 measured after 24 hrs by broth microdilution method; format: functional
Pseudomonas aeruginosa [29] = experiment: Antibacterial activity against clinical isolate Pseudomonas aeruginosa 1945 measured after 24 hrs by broth microdilution method; format: functional
Serratia marcescens = experiment: Antibacterial activity against clinical isolate Serratia marcescens 1966 measured after 24 hrs by broth microdilution method; format: functional
Staphylococcus aureus [30] = experiment: Antibiofilm activity against biofilm-embedded Staphylococcus aureus assessed as reduction in log CFU at 1 to 32 times of MBC measured after 24 hrs by drop plate assay; format: functional, organism-based
Micrococcus luteus [31] = experiment: Antibiofilm activity against biofilm-embedded Micrococcus luteus assessed as reduction in log CFU at 1 to 32 times of MBC measured after 24 hrs by drop plate assay; format: functional, organism-based
Escherichia coli [32] = experiment: Antibiofilm activity against biofilm-embedded Escherichia coli assessed as reduction in log CFU at 1 to 32 times of MBC measured after 24 hrs by drop plate assay; format: functional, organism-based
Pseudomonas aeruginosa [33] = experiment: Antibiofilm activity against biofilm-embedded Pseudomonas aeruginosa assessed as reduction in log CFU at 1 to 32 times of MBC measured after 24 hrs by drop plate assay; format: functional, organism-based
Staphylococcus aureus [34] = experiment: Antibacterial activity against Staphylococcus aureus assessed as fold increase in MIC after 8 passages by serial dilution method; format: functional, organism-based; conditions: time 24.0 hrs
Escherichia coli [35] = experiment: Antibacterial activity against Escherichia coli assessed as fold increase in MIC after 4 passages by serial dilution method; format: functional, organism-based; conditions: time 24.0 hrs
[36] = Acute toxicity in C57BL/6CBA mouse assessed as pale kidneys at 2000 mg/kg, po after 7 days; format: organism-based; conditions: in vivo, 168 h, time 7 day
[37] = Acute toxicity in C57BL/6CBA mouse assessed pale gastric mucosa at 2000 mg/kg, po after 7 days; format: organism-based; conditions: in vivo, 168 h, time 7 day
[38] = Acute toxicity in po dosed C57BL/6CBA mouse measured upto 7 days; format: organism-based; conditions: in vivo, time <=7 day
[39] = Acute toxicity in topically treated C57BL/6CBA mouse measured upto 14 days; conditions: in vivo, topical or ocular, time <=14 day
Cell membrane [40] = experiment: Induction of cell membrane damage in Staphylococcus aureus assessed as decrease in flourescence measured for 35 mins with 5 min interval by DioC2(3) based flourescence method
Cell membrane [41] = experiment: Induction of cell membrane damage in Escherichia coli assessed as decrease in flourescence measured for 35 mins with 5 min interval by DioC2(3) based flourescence method
[42] = Acute toxicity in topically treated C57BL/6CBA mouse assessed as death measured at 2500 mg/kg treated as single topically measured after 14 days; format: organism-based; conditions: in vivo, topical_or_ocular, 336 h, time 14 day
[43] = Acute toxicity in C57BL/6CBA mouse assessed as necropsy measured at 2500 mg/kg treated as single topically measured after 14 days; format: organism-based; conditions: in vivo, topical_or_ocular, 336 h, time 14 day
[44] = Antibiofilm activity against biofilm-embedded Staphylococcus aureus/Escherichia coli assessed as reduction in viable cells upto 512 mg/L measured after 24 hrs by drop plate based dual species biofilm assay; format: functional, cell-based; conditions: dose mg/L <=512, time 24.0 hrs
[45] = Antibiofilm activity against biofilm-embedded Staphylococcus aureus/Pseudomonas aeruginosa assessed as reduction in viable cells upto 512 mg/L measured after 24 hrs by drop plate based dual species biofilm assay; format: functional, cell-based; conditions: dose mg/L <=512, time 24.0 hrs
[46] = Lipophilicity, logP of the compound; format: physicochemical; conditions: octanol/water

Q: For `CCCCCCCCCCCCCC(=O)NCC[N+](C)(C)Cc1nc(C)c2c(c1CO)COC(C)(C)O2.[Cl-]`, which MIC [1] is on record?
A: > 64 µg/mL

Q: What about the MIC (Staphylococcus aureus [2]) of the same molecule?
A: 1 µg/mL

Q: And the MIC (Bacillus subtilis)?
A: 1 µg/mL

Q: What about the MIC (Micrococcus luteus [3]) of the same molecule?
A: 2 µg/mL

Q: And the MIC (Escherichia coli [4])?
A: 8 µg/mL

Q: And the MIC (Pseudomonas aeruginosa [5])?
A: > 64 µg/mL

Q: And the CC50 at 72 h [6]?
A: 1.32 µg/mL

Q: And the CC50 at 72 h [7]?
A: 1.74 µg/mL

Q: What about the CC50 at 72 h [8] of the same molecule?
A: 3.21 µg/mL

Q: What about the Ratio [9] of the same molecule?
A: 0.4

Q: And the Ratio [10]?
A: 0.7

Q: What about the Ratio [11] of the same molecule?
A: 0.7

Q: And the Ratio [12]?
A: 1.8

Q: And the Ratio [13]?
A: 1.6

Q: And the Ratio [14]?
A: 1.1

Q: And the Ratio [15]?
A: 0.01

Q: And the Ratio [16]?
A: 1.9

Q: And the Ratio [17]?
A: 1.7

Q: What about the MIC (Staphylococcus aureus [18]) of the same molecule?
A: 4 µg/mL

Q: And the MIC (Staphylococcus aureus [19])?
A: 32 µg/mL

Q: And the MIC (Staphylococcus aureus [20])?
A: 4 µg/mL

Q: And the MIC [21]?
A: 4 µg/mL

Q: What about the MIC (Staphylococcus aureus [22]) of the same molecule?
A: 2 µg/mL

Q: And the MIC (Staphylococcus aureus [23])?
A: 4 µg/mL

Q: What about the MIC [24] of the same molecule?
A: 4 µg/mL

Q: And the MIC (Staphylococcus aureus [25])?
A: 2 µg/mL

Q: What about the MIC (Enterococcus faecalis [26]) of the same molecule?
A: 1 µg/mL

Q: And the MIC (Enterococcus faecalis [27])?
A: 1 µg/mL

Q: What about the MIC (Acinetobacter sp.) of the same molecule?
A: 32 µg/mL

Q: What about the MIC (Pseudomonas sp.) of the same molecule?
A: 32 µg/mL

Q: And the MIC (Klebsiella sp.)?
A: 32 µg/mL

Q: And the MIC (Proteus sp.)?
A: > 64 µg/mL

Q: What about the MIC (Escherichia coli [28]) of the same molecule?
A: 16 µg/mL

Q: What about the MIC (Moraxella) of the same molecule?
A: 64 µg/mL

Q: What about the MIC (Klebsiella pneumoniae) of the same molecule?
A: 2 µg/mL

Q: And the MIC (Pseudomonas aeruginosa [29])?
A: 32 µg/mL

Q: And the MIC (Serratia marcescens)?
A: > 64 µg/mL

Q: And the Activity (Staphylococcus aureus [30])?
A: Active

Q: And the Activity (Micrococcus luteus [31])?
A: Active

Q: What about the Activity (Escherichia coli [32]) of the same molecule?
A: Active

Q: And the Activity (Pseudomonas aeruginosa [33])?
A: Active

Q: And the MIC (Staphylococcus aureus [34])?
A: Active

Q: And the MIC (Escherichia coli [35])?
A: Active

Q: What about the Activity [36] of the same molecule?
A: Toxic

Q: And the Activity [37]?
A: Toxic

Q: And the LD50 at 168 h [38]?
A: > 2000 mg/kg

Q: What about the LD50 at 336 h [39] of the same molecule?
A: > 2500 mg/kg

Q: And the Activity (Cell membrane [40])?
A: Dose-Dependent Effect

Q: And the Activity (Cell membrane [41])?
A: Dose-Dependent Effect

Q: And the Activity [42]?
A: Non-Toxic

Q: And the Activity [43]?
A: Non-Toxic

Q: What about the Activity [44] of the same molecule?
A: inactive

Q: And the Activity [45]?
A: inactive

Q: What about the logP [46] of the same molecule?
A: 0.73
